From article PMC10962542, “Inhibition of Aurora‐A/N‐Myc Protein–Protein Interaction Using Peptidomimetics: Understanding the Role of Peptide Cyclization” (Chembiochem, 2023)
*1 amine or outer side, *2 acyl side, *3 side chain or, on linkers, in order; H or OH if unused. Where a SMILES comes first, the peptide text is derived from it. Bridges are numbered along the chain shown (N, C = ends). Maleimide(3,4-diyl) = O=C1NC(=O)C([*:2])=C1[*:1]

What was measured:
[1] = target: T1, N‐Myc/Aurora‐A interaction (Aurora‐A122‐403‐C290A/C393A) (Homo sapiens, UniProt O14965, C290A/C393A); test: competition fluorescence anisotropy (FA) assay against fluorescein labelled N‐Myc61‐89; type: binding; details: SD; further: equilibrated 2 h at room temperature
T1 construct: Aurora‐A 122‐403‐C290A/C393A protein was produced as described previously; made in house
T1 sequence (O14965 122-403 C290A/C393A): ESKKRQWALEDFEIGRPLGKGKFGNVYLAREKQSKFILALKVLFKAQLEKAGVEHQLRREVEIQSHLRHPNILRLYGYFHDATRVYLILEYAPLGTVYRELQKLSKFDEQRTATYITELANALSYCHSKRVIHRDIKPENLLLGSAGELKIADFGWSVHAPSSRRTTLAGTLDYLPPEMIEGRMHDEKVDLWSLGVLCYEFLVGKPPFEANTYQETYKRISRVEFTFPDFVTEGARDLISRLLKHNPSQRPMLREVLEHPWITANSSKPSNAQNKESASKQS
Protocol: Fluorescence anisotropy (FA) assays: All assays were performed using 384‐well plates (Greiner Bio‐one, UK). […] All samples were prepared in 25 mM Tris, 150 mM NaCl, 5 mM MgCl2, pH 7.5, and tested in triplicate using an EnVisionTM 2103 MultiLabel plate reader (Perkin Elmer; Waltham, MA, USA). The parameters were set as follows: Excitation wavelength=480 nm (30 nm bandwidth) and emission wavelength=535 nm (30 nm bandwidth). Measured data were processed and analysed as previously described.[31] Specifically, the perpendicular intensity (P) and parallel intensity (S) were subtracted by the control values and used for calculations of intensity and anisotropy using the following Equations 1, 2, 3, 4, and 5: (1) I=2PG+S (2) r=S-PG (3) Lb=r-rmin/λrmax-r+r-rmin (4) [drawing 1] (5) y=rmax+rmin-rmax/1+(x/x0)^p
For competition FA assays, the average anisotropy and the average standard deviation of the values derived from equation (2) were calculated and fit to a sigmoidal logistic model (equation (5)) using Origin 2021. […] Results are reported as IC50±SD, with data points representing the mean of three replicates and error bars indicating the corresponding SD. Where applicable, ΔΔG was determined as follows: ΔΔG=−RT ln (ΔIC50).

[2] = circular dichroism (CD) spectroscopy; type: physicochemical; details: 150 mM NaCl, 5 mM MgCl2, pH 7.5, 5 °C, n=2, free‐thiol (red) samples with 5 mol equivalents TCEP
Protocol: Circular dichroism (CD): All samples were prepared in Tris buffer (25 mM Tris, 150 mM NaCl, 5 mM MgCl2, pH 7.5) with the exception of free sulfhydryl peptides, to which Tris(2‐carboxyethyl)phosphine (TCEP; 5 mol eq. relative to the peptide) was added. CD spectra were recorded using an APP Chirascan CD spectropolarimeter and 1 mm pathlength quartz cuvettes. Sample concentrations were typically 30–120 μM, as determined by UV−V absorption based on a tryptophan extinction coefficient of 5600 M^−1 cm^−1 and, for mal‐constrained variants, a maleimide coefficient of 1700 M^−1 cm^−1.[16, 32] […] Spectra were recorded in duplicate at 5 °C, over wavelengths ranging from 290 to 180 nm, with data collected every 1 nm (1 nm s^−1). A background spectrum for CD buffer alone was also recorded and background ellipticity values were subtracted from raw sample ellipticity values (θ) when calculating mean residue ellipticities (MREs) using Equation 6: (6) MRE=(θλ-θ0)xMw/nxlxc
Where [θ]λ is the observed ellipticity at a given wavelength λ in mdeg, [θ]0 is the ellipticity observed for the buffer, Mw =molar weight of the peptide in g mol^−1, n=number of residues; c=sample concentration (mg mL^−1); l=pathlength of the cuvette in mm. Estimates of peptide % helicity were made using Equation 7, [33] (7) %helicity=(MRE222-MREcoil)x100/-425001-3/n
where MRE222 is the MRE value at 222 nm, MREcoil=640‐45T (with T in °C)=415 deg cm^2 dmol^−1 res^−1 at 5 °C, and n is the number of backbone amide bonds including the N‐terminal acetyl.

IC50 [1] [µM] | MRE222 (mean residue ellipticity at 222 nm) ([2]; 25 mM Tris, mean ± SD, SD) [deg cm^−1 dmol^−1 res^−1] | % Helicity (estimated) ([2]; from MRE222 by equation 7, 25 mM Tris) [%] | SMILES
86 ± 7 | – | – | CSCC[C@@H]1NC(=O)[C@@H](NC(=O)[C@@H](NC(=O)[C@@H](NC(=O)[C@H](Cc2c[nH]c3ccccc23)NC(=O)[C@H](CO)NC(=O)[C@@H]2CCCN2C(=O)[C@@H]2CCCN2C(=O)[C@H](CCC(=O)O)NC(=O)[C@H](CO)NC(=O)[C@H](CO)NC(=O)[C@H](Cc2c[nH]cn2)NC(=O)[C@H](CCC(=O)O)NC(=O)[C@H](C)NC(=O)[C@H](Cc2ccccc2)NC(=O)CNC(=O)[C@H](CCCNC(=N)N)NC(=O)[C@H](CO)NC(=O)[C@@H]2CCCN2C(=O)[C@H](CO)NC(=O)[C@H](CC(C)C)NC(C)=O)C(C)C)[C@@H](C)O)CSC2=C(SC[C@@H](C(=O)N[C@@H](CC(N)=O)C(=O)N[C@@H](CCC(=O)O)C(=O)N[C@@H](CC(C)C)C(=O)N[C@@H](Cc3c[nH]c4ccccc34)C(=O)NCC(N)=O)NC(=O)[C@H](CC(C)C)NC(=O)[C@H](CC(C)C)NC1=O)C(=O)NC2=O [N-Myc 61-89 E80C/E84C mal] (Ac-LSPSRGFAEHSSEPPSWVTCMLLCNELWG-NH2; linker 20-24 via Maleimide(3,4-diyl))
69 ± 18 | – | – | CSCC[C@H](NC(=O)[C@H](CCC(=O)O)NC(=O)[C@@H](NC(=O)[C@@H](NC(=O)[C@H](Cc1c[nH]c2ccccc12)NC(=O)[C@H](CO)NC(=O)[C@@H]1CCCN1C(=O)[C@@H]1CCCN1C(=O)[C@H](CCC(=O)O)NC(=O)[C@H](CO)NC(=O)[C@H](CO)NC(=O)[C@H](Cc1c[nH]cn1)NC(=O)[C@H](CCC(=O)O)NC(=O)[C@H](C)NC(=O)[C@H](Cc1ccccc1)NC(=O)CNC(=O)[C@H](CCCNC(=N)N)NC(=O)[C@H](CO)NC(=O)[C@@H]1CCCN1C(=O)[C@H](CO)NC(=O)[C@H](CC(C)C)NC(C)=O)C(C)C)[C@@H](C)O)C(=O)N[C@H]1CSC2=C(SC[C@@H](C(=O)N[C@@H](CC(C)C)C(=O)N[C@@H](Cc3c[nH]c4ccccc34)C(=O)NCC(N)=O)NC(=O)[C@H](CC(N)=O)NC(=O)[C@H](CCC(=O)O)NC(=O)[C@H](CC(C)C)NC1=O)C(=O)NC2=O [N-Myc 61-89 L82C/E86C mal] (Ac-LSPSRGFAEHSSEPPSWVTEMCLENCLWG-NH2; linker 22-26 via Maleimide(3,4-diyl))
133 ± 3 | – | – | CC(=O)N[C@@H](CC(C)C)C(=O)N[C@@H](CO)C(=O)N1CCC[C@H]1C(=O)N[C@@H](CO)C(=O)N[C@@H](CCCNC(=N)N)C(=O)NCC(=O)N[C@@H](Cc1ccccc1)C(=O)N[C@@H](C)C(=O)N[C@@H](CCC(=O)O)C(=O)N[C@@H](Cc1c[nH]cn1)C(=O)N[C@@H](CO)C(=O)N[C@@H](CO)C(=O)N[C@@H](CCC(=O)O)C(=O)N1CCC[C@H]1C(=O)N1CCC[C@H]1C(=O)N[C@@H](CO)C(=O)N[C@@H](Cc1c[nH]c2ccccc12)C(=O)N[C@H](C(=O)N[C@H](C(=O)N[C@@H](CCC(=O)O)C(=O)N[C@H]1CSC2=C(SC[C@@H](C(=O)N[C@@H](CCC(=O)O)C(=O)N[C@@H](CC(C)C)C(=O)N[C@@H](Cc3c[nH]c4ccccc34)C(=O)NCC(N)=O)NC(=O)[C@H](CCC(=O)O)NC(=O)[C@H](CC(C)C)NC(=O)[C@H](CC(C)C)NC1=O)C(=O)NC2=O)[C@@H](C)O)C(C)C [N-Myc 61-89 M81C/N85C mal] (Ac-LSPSRGFAEHSSEPPSWVTECLLECELWG-NH2; linker 21-25 via Maleimide(3,4-diyl))
– | -1692 ± 70 | 6 ± 1 | CSCC[C@H](NC(=O)[C@H](CCC(=O)O)NC(=O)[C@@H](NC(=O)[C@H](CS)NC(=O)[C@H](Cc1c[nH]c2ccccc12)NC(=O)[C@H](CO)NC(=O)[C@@H]1CCCN1C(=O)[C@@H]1CCCN1C(=O)[C@H](CCC(=O)O)NC(=O)[C@H](CO)NC(=O)[C@H](CO)NC(=O)[C@H](Cc1c[nH]cn1)NC(=O)[C@H](CCC(=O)O)NC(=O)[C@H](C)NC(=O)[C@H](Cc1ccccc1)NC(=O)CNC(=O)[C@H](CCCNC(=N)N)NC(=O)[C@H](CO)NC(=O)[C@@H]1CCCN1C(=O)[C@H](CO)NC(=O)[C@H](CC(C)C)NC(C)=O)[C@@H](C)O)C(=O)N[C@@H](CS)C(=O)N[C@@H](CC(C)C)C(=O)N[C@@H](CCC(=O)O)C(=O)N[C@@H](CC(N)=O)C(=O)N[C@@H](CCC(=O)O)C(=O)N[C@@H](CC(C)C)C(=O)N[C@@H](Cc1c[nH]c2ccccc12)C(=O)NCC(N)=O [N-Myc 61-89 V78C/L82C red] (Ac-LSPSRGFAEHSSEPPSWCTEMCLENELWG-NH2)
